Test results as given in patent US11254671B2, “Chemical compounds” (GLAXOSMITHKLINE INTELLECTUAL PROPERTY DEVELOPMENT LIMITED, priority 2017, dated 2022).
Values joined by “and” are separate entries in the source; they are usually repeats but may differ in a detail not shown here. Identical values can stand only once.

What follows are compounds tested against T1, mTOR (Homo sapiens, UniProt P42345) (assay: mTOR kinobeads assay (competition-binding assay)). Conditions: HuT-78 cell extract, endogenously expressed mTOR, bead-immobilized capturing ligand; mean of multiple experiments; read-out: mean pIC50, affinity for mTOR (converted).
T1 construct: capturing of endogenously expressed target proteins from cell extracts by a bead-immobilized capturing ligand; endogenous in cells; host or cells: HuT-78 cells (ECACC 88041901), cell lysate
Method: The affinity of test compounds for mTOR was determined in the mTOR kinobeads assay. This is a competition-binding assay based on the capturing of endogenously expressed target proteins from cell extracts by a bead-immobilized capturing ligand in presence of the test compound.
HuT-78 cells (European Collection of Authenticated Cell Cultures, 88041901) were cultured according to vendor's instructions. Frozen cell pellets were homogenized in 3× pellet volumes lysis buffer (50 mM Tris-HCl, 0.4% (v/v) Igepal-CA630, 5% glycerol, 150 mM NaCl, 1.5 mMMgCl2, 25 mM NaF, 1 mM sodium vanadate, 1 mM DTT, pH 7.5, supplemented with EDTA-free protease inhibitor tablet (Roche)). The sample was dispersed using a Dounce homogenizer, kept rotating for 30 min at 4° C., and centrifuged for 10 min at 20 000 g at 4° C. The supernatant was centrifuged again for 1 h at 145 000 g. The protein concentration was determined by Bradford assay (BioRad), aliquots were snap frozen in liquid nitrogen and stored at −80° C.
The capturing matrices were generated by derivatizing N-hydroxysuccinimide (NHS) activated Sepharose 4 beads (GE Healthcare) with the functionalized ligands Compound A and Compound C at a ligand density of 5 mM. Remaining NHS-groups were blocked with ethanolamine.
For the mTOR kinobeads assay the matrices were combined in a 1:1 ratio and equilibrated in DP buffer (50 mM Tris-HCl (pH 7.5), 0.4% (v/v) Igepal-CA630, 5% (v/v) glycerol, 150 mM NaCl, 1.5 mM MgCl2, 25 mM NaF, 1 mM Na3VO4, 1 mM dithiothreitol). All steps of the mTOR kinobeads assay were performed at 4° C. or on ice. The cell lysate was diluted with DP buffer to a final concentration of 5 mg/ml and a final detergent concentration of 0.4% (v/v) Igepal-CA630. For the assay 250 μg cell lysate and 2.5 μl capturing matrix per well (final assay volume: 75 μl) were incubated in the presence of test compounds in a 384-well filter plate (MultiScreenHTS HV Filter Plate, 0.45 μm, MZHVNOW50, Merck Millipore). Each plate contained 16 positive (100 μM Compound B) and 16 negative (2% v/v DMSO) control wells. Compounds were tested in a concentration-response applying 1:3 or 1:4 dilution steps for in total 11 data points. DMSO concentration was 2% (v/v). After 2 h incubation on an overhead shaker (Roto-Shake Genie, Scientific Industries Inc.) at 4° C. the non-bound fraction was removed by washing the beads with DP buffer. Proteins retained on the beads were eluted in SDS sample buffer (200 mM Tris (pH 7.4), 250 mM Trizma Base, 4% (w/v) SDS, 20% (v/v) glycerol, 0.01% (w/v) bromophenol blue, 50 mM dithiothreitol) into a collection plate (384 well polypropylene microplate, V-shape, Greiner, 781 280). Eluates were spotted on nitrocellulose membranes (400 nl per spot) using an automated pin-tool liquid transfer (Biomek FX, Beckman). After drying, the membranes were rehydrated in 20% (v/v) ethanol and blocked by incubation with Odyssey blocking buffer (LICOR, 927-40000) for 1 h at room temperature. Blocked membranes were incubated overnight at 25° C. with Odyssey blocking buffer supplemented with a specific anti-mTOR antibody (Cell Signaling, 2972; 1:500) and 0.4% TWEEN-20. Then the membranes were washed in PBST buffer and incubated for 60 minutes at room temperature with the detection antibody (IRDye™ labelled antibody from LI-COR) diluted in Odyssey blocking buffer (LICOR 927-40000) containing 0.2% TWEEN-20. Then the membranes were washed with PBST and finally rinsed twice with PBS buffer to remove residual Tween-20. The membranes were then scanned with the Odyssey® Infrared Imaging System (LI-COR Biosciences). Fluorescence signals were recorded and analyzed according to the instructions of the manufacturer. Concentration response curves were computed with the software Activity Base. All data were normalized to the mean of 16 high (negative control) and 16 low (positive control) control wells on each plate. […]
In the case of `CC[C@H]1COCCN1c1cc(C2(S(=O)(=O)N(C)C)CCOCC2)cc(-c2ccc3[nH]c(CNC)cc3n2)n1` [Example 31, 4-{2-[(3S)-3-ethylmorpholin-4-yl]-6-{2-[(methylamino)methyl]-1H-pyrrolo[3,2-b]pyridin-5-yl}pyridin-4-yl}-N,N-dimethyloxane-4-sulfonamide], the IC50 is reported as 2.51 to 31.6 nM and 2.51 to 316 nM.
`CC[C@H]1COCCN1c1cc(C(C)(C)S(C)(=O)=O)cc(-c2ccc3[nH]c(CN)cc3n2)n1` [Example 21, 1-(5-{6-[(3S)-3-ethylmorpholin-4-yl]-4-(2-methanesulfonylpropan-2-yl)pyridin-2-yl}-1H-pyrrolo[3,2-b]pyridin-2-yl)methanamine] was tested, and the IC50 was 2.51 to 31.6 nM and 2.51 to 316 nM.
In the case of `CC[C@H]1COCCN1c1cc(C(C)(C)S(N)(=O)=O)cc(-c2ccc3[nH]c(CNC)cc3n2)n1` [Example 28, 2-{2-[(3S)-3-ethylmorpholin-4-yl]-6-{2-[(methylamino)methyl]-1H-pyrrolo[3,2-b]pyridin-5-yl}pyridin-4-yl}propane-2-sulfonamide], the IC50 is reported as 2.51 to 31.6 nM and 2.51 to 316 nM.
`CNCc1cc2nc(-c3cc(C(C)(C)S(C)(=O)=O)cc(N4[C@@H]5CC[C@H]4COC5)n3)ccc2[nH]1` [Example 3, 1-(5-(6-((1R,5S)-3-oxa-8-azabicyclo[3.2.1]octan-8-yl)-4-(2-(methylsulfonyl)propan-2-yl)pyridin-2-yl)-1H-pyrrolo[3,2-b]pyridin-2-yl)-N-methylmethanamine] showed an IC50 of 2.51 to 316 nM.
`CNCc1cc2nc(-c3cc(C(C)(C)S(C)(=O)=O)cc(N4C5CCCC4COC5)n3)ccc2[nH]1` [Example 5, 1-(5-(6-(3-oxa-9-azabicyclo[3.3.1]nonan-9-yl)-4-(2-(methylsulfonyl)propan-2-yl)pyridin-2-yl)-1H-pyrrolo[3,2-b]pyridin-2-yl)-N-methylmethanamine] was tested, and the IC50 was 2.51 to 316 nM.
`CC[C@H]1COCCN1c1cc(CS(C)(=O)=O)cc(-c2ccc3[nH]c(CNC)cc3n2)n1` [Example 13, (S)-1-(5-(6-(3-ethylmorpholino)-4-((methylsulfonyl)methyl)pyridin-2-yl)-1H-pyrrolo[3,2-b]pyridin-2-yl)-N-methylmethanamine] was tested, and the IC50 was 2.51 to 31.6 nM and 2.51 to 316 nM.
For `CNCc1cc2nc(-c3cc(CS(C)(=O)=O)cc(N4CC5CCC(C4)O5)n3)ccc2[nH]1` [Example 25, ({5-[4-(methanesulfonylmethyl)-6-{8-oxa-3-azabicyclo[3.2.1]octan-3-yl}pyridin-2-yl]-1H-pyrrolo[3,2-b]pyridin-2-yl}methyl)(methyl)amine], the IC50 was 2.51 to 31.6 nM and 2.51 to 316 nM.
For `CNCc1cc2nc(-c3cc(C(F)(F)S(C)(=O)=O)cc(N4CCOC[C@@H]4C)n3)ccc2[nH]1` [Example 12, (S)-1-(5-(4-(difluoro(methylsulfonyl)methyl)-6-(3-methylmorpholino)pyridin-2-yl)-1H-pyrrolo[3,2-b]pyridin-2-yl)-N-methylmethanamine], the IC50 was 2.51 to 316 nM.
With `CC[C@H]1COCCN1c1cc(CS(C)(=O)=O)cc(-c2ccc3[nH]c(CO)cc3n2)n1` [Example 34, (5-{6-[(3S)-3-ethylmorpholin-4-yl]-4-(methanesulfonylmethyl)pyridin-2-yl}-1H-pyrrolo[3,2-b]pyridin-2-yl)methanol] the IC50 was 2.51 to 31.6 nM and 2.51 to 316 nM.
`CC[C@H]1COCCN1c1cc(C2(S(C)(=O)=O)CC2)cc(-c2ccc3[nH]c(CNC)cc3n2)n1` [Example 19, [(5-{6-[(3S)-3-ethylmorpholin-4-yl]-4-(1-methanesulfonylcyclopropyl)pyridin-2-yl}-1H-pyrrolo[3,2-b]pyridin-2-yl)methyl](methyl)amine] was tested, and the IC50 was 2.51 to 31.6 nM and 2.51 to 316 nM.
With `CCS(=O)(=O)C(C)(C)c1cc(-c2ccc3[nH]c(CNC)cc3n2)nc(N2CCOC[C@@H]2C)c1` [Example 7, (S)-1-(5-(4-(2-(ethylsulfonyl)propan-2-yl)-6-(3-methylmorpholino)pyridin-2-yl)-1H-pyrrolo[3,2-b]pyridin-2-yl)-N-methylmethanamine] the IC50 was 2.51 to 316 nM.
`CNCc1cc2nc(-c3cc(C4(S(C)(=O)=O)CC4)cc(N4CCOC[C@@H]4C)n3)ccc2[nH]1` [Example 20, ({5-[4-(1-methanesulfonylcyclopropyl)-6-[(3S)-3-methylmorpholin-4-yl]pyridin-2-yl]-1H-pyrrolo[3,2-b]pyridin-2-yl}methyl)(methyl)amine] showed an IC50 of 2.51 to 316 nM.
